Measurements from ChEMBL document CHEMBL4715724, “Novel 5-substituted-2-anilinoquinolines with 3-(morpholino or 4-methylpiperazin-1-yl)propoxy moiety as broad spectrum antiproliferative agents: Synthesis, cell based assays and kinase screening” (Bioorg Med Chem Lett, 2016).

Legend:
K562 = assay: cells; assay type: functional; settings: Homo sapiens, time 48 hrs
Description: Growth inhibition of human K562 cells incubated for 48 hrs by sulforhodamine B assay

NCI-H23 = assay: cells; assay type: functional; settings: Homo sapiens, time 48 hrs
Description: Growth inhibition of human NCI-H23 cells incubated for 48 hrs by sulforhodamine B assay

NCI-H522 = assay: cells; assay type: functional; settings: Homo sapiens, time 48 hrs
Description: Growth inhibition of human NCI-H522 cells incubated for 48 hrs by sulforhodamine B assay

HCT-15 = assay: cells; assay type: functional; settings: Homo sapiens, time 48 hrs
Description: Growth inhibition of human HCT-15 cells incubated for 48 hrs by sulforhodamine B assay

HT-29 = assay: cells; assay type: functional; settings: Homo sapiens, time 48 hrs
Description: Growth inhibition of human HT-29 cells incubated for 48 hrs by sulforhodamine B assay

KM12 = assay: cells; assay type: functional; settings: Homo sapiens, time 48 hrs
Description: Growth inhibition of human KM12 cells incubated for 48 hrs by sulforhodamine B assay

SF-295 = assay: cells; assay type: functional; settings: Homo sapiens, time 48 hrs
Description: Growth inhibition of human SF-295 cells incubated for 48 hrs by sulforhodamine B assay

SNB-75 = assay: cells; assay type: functional; settings: Homo sapiens, time 48 hrs
Description: Growth inhibition of human SNB-75 cells incubated for 48 hrs by sulforhodamine B assay

LOX IMVI = assay: cells; assay type: functional; settings: Homo sapiens, time 48 hrs
Description: Growth inhibition of human LOX IMVI cells incubated for 48 hrs by sulforhodamine B assay

IGROV-1 = assay: cells; assay type: functional; settings: Homo sapiens, time 48 hrs
Description: Growth inhibition of human IGROV-1 cells incubated for 48 hrs by sulforhodamine B assay

OVCAR-3 = assay: cells; assay type: functional; settings: Homo sapiens, time 48 hrs
Description: Growth inhibition of human OVCAR-3 cells incubated for 48 hrs by sulforhodamine B assay

OVCAR-4 = assay: cells; assay type: functional; settings: Homo sapiens, time 48 hrs
Description: Growth inhibition of human OVCAR-4 cells incubated for 48 hrs by sulforhodamine B assay

A498 = assay: cells; assay type: functional; settings: Homo sapiens, time 48 hrs
Description: Growth inhibition of human A498 cells incubated for 48 hrs by sulforhodamine B assay

RXF 393 = assay: cells; assay type: functional; settings: Homo sapiens, time 48 hrs
Description: Growth inhibition of human RXF 393 cells incubated for 48 hrs by sulforhodamine B assay

TK-10 = assay: cells; assay type: functional; settings: Homo sapiens, time 48 hrs
Description: Growth inhibition of human TK-10 cells incubated for 48 hrs by sulforhodamine B assay

Hs-578T = assay: cells; assay type: functional; settings: Homo sapiens, time 48 hrs
Description: Growth inhibition of human Hs-578T cells incubated for 48 hrs by sulforhodamine B assay

MDA-MB-468 = assay: cells; assay type: functional; settings: Homo sapiens, time 48 hrs
Description: Growth inhibition of human MDA-MB-468 cells incubated for 48 hrs by sulforhodamine B assay

[1] = Cytotoxicity against human HFF-1 cells assessed as cell growth inhibition at 10 uM by MTT assay relative to control; assay type: cell-based; settings: read-out: GI
[2] = Cytotoxicity against human HFF-1 cells assessed as cell growth inhibition at 0.1 uM by MTT assay relative to control; assay type: cell-based; settings: read-out: GI
[3] = biological target: Tyrosine-protein kinase ABL1 (Homo sapiens) (UniProt P00519); assay: Inhibition of recombinant N-terminal His6-tagged human ABL (27 to end residues) expressed in baculovirus infected Sf21 insect cells assessed as residual activity at 10 uM relative to control
[4] = biological target: ALK tyrosine kinase receptor (Homo sapiens) (UniProt Q9UM73); assay: Inhibition of N-terminal His6-tagged human recombinant ALK (1058 to end residues) expressed in baculovirus infected Sf21 cells assessed as residual activity at 10 uM relative to control
[5] = biological target: Cytoplasmic tyrosine-protein kinase BMX (Homo sapiens) (UniProt P51813); assay: Inhibition of N-terminal full length His6-tagged human recombinant BMX expressed in Sf21 cells assessed as residual activity at 10 uM relative to control
[6] = biological target: RAF proto-oncogene serine/threonine-protein kinase (Homo sapiens) (UniProt P04049); assay: Inhibition of recombinant N-terminal GST-tagged human CRAF (306 to 648 residues) expressed in Sf9 cells assessed as residual activity at 10 uM relative to control
RAF proto-oncogene serine/threonine-protein kinase (Homo sapiens), sequence (P04049 whole entry, the tested form may be a part): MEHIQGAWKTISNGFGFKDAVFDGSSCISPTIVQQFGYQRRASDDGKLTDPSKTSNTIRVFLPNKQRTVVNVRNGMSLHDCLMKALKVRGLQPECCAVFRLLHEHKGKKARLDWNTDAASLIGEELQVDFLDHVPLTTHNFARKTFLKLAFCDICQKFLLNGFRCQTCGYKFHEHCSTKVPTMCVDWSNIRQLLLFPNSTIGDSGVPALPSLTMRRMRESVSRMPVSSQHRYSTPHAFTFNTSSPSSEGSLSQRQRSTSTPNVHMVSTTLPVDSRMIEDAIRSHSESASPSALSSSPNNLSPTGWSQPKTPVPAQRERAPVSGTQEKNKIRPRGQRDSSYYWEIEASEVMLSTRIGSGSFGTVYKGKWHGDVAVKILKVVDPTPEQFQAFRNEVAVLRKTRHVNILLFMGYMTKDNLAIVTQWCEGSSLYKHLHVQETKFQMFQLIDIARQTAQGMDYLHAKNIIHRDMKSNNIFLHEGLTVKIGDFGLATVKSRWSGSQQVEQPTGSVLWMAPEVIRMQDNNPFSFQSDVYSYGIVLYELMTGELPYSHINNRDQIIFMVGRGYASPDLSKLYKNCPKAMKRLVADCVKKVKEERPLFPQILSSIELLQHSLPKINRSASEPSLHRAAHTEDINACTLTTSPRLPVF

[7] = biological target: Ephrin type-B receptor 4 (Homo sapiens) (UniProt P54760); assay: Inhibition of human EphB4 at 10 uM relative to control
Ephrin type-B receptor 4 (Homo sapiens), sequence (P54760 whole entry): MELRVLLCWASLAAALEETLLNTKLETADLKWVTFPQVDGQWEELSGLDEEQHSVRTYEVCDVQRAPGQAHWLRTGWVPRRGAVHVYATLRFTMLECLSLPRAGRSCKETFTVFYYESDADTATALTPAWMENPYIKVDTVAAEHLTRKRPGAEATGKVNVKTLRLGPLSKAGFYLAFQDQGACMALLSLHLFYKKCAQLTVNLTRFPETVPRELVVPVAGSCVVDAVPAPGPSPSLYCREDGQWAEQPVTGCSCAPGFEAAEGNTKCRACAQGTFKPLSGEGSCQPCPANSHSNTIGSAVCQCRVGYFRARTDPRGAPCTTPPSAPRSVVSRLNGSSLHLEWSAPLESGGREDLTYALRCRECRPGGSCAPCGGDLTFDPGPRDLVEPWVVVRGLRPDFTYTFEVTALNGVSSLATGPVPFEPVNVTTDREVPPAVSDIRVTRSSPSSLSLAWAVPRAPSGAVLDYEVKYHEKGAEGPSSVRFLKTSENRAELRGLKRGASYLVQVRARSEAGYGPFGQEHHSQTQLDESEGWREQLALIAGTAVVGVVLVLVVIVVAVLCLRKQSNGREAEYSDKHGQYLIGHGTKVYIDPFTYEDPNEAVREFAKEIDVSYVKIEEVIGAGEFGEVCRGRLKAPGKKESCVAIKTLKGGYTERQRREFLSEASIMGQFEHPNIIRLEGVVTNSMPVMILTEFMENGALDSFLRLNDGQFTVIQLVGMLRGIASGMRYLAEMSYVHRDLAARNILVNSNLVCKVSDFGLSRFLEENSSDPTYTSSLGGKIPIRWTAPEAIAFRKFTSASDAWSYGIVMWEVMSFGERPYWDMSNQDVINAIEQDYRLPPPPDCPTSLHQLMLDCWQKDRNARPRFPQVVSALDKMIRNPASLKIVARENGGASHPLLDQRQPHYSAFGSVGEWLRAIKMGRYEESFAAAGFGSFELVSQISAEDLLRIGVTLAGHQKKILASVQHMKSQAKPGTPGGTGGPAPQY

[8] = biological target: Fibroblast growth factor receptor 1 (Homo sapiens) (UniProt P11362); assay: Inhibition of human FGFR1 assessed as residual activity at 10 uM relative to control
Fibroblast growth factor receptor 1 (Homo sapiens), sequence (P11362 22-822 limits assumed): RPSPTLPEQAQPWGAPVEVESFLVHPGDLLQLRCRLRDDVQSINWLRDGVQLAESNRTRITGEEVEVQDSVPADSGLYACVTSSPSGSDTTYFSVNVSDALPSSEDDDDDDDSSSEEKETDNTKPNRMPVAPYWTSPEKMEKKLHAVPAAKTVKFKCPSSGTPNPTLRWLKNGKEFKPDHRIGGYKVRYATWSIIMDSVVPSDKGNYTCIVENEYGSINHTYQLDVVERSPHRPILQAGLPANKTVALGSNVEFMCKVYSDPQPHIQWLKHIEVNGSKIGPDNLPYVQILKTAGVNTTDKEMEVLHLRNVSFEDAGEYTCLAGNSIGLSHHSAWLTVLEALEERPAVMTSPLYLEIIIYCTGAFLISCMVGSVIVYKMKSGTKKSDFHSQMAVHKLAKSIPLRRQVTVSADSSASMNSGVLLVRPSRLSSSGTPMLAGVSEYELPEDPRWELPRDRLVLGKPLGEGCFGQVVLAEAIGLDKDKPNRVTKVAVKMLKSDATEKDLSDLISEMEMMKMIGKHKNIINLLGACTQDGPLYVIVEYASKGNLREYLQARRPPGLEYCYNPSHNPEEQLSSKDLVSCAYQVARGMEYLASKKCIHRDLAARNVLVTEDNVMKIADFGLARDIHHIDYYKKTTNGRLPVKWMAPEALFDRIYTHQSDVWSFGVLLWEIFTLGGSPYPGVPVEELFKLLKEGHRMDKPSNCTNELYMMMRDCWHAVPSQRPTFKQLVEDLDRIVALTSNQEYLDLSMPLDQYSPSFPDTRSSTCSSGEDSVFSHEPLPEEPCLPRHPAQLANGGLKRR

[9] = biological target: Fibroblast growth factor receptor 2 (Homo sapiens) (UniProt P21802); assay: Inhibition of N-terminal His6-tagged human FGFR2 (456 to 770 residues) expressed in baculovirus-infected Sf21 cells assessed as residual activity at 10 uM relative to control
[10] = biological target: Fibroblast growth factor receptor 3 (Homo sapiens) (UniProt P22607); assay: Inhibition of N-terminal His6-tagged human FGFR3 (447 to 761 residues) expressed in Sf21 cells assessed as residual activity at 10 uM relative to control
Fibroblast growth factor receptor 3 (Homo sapiens), sequence (P22607 23-806 limits assumed): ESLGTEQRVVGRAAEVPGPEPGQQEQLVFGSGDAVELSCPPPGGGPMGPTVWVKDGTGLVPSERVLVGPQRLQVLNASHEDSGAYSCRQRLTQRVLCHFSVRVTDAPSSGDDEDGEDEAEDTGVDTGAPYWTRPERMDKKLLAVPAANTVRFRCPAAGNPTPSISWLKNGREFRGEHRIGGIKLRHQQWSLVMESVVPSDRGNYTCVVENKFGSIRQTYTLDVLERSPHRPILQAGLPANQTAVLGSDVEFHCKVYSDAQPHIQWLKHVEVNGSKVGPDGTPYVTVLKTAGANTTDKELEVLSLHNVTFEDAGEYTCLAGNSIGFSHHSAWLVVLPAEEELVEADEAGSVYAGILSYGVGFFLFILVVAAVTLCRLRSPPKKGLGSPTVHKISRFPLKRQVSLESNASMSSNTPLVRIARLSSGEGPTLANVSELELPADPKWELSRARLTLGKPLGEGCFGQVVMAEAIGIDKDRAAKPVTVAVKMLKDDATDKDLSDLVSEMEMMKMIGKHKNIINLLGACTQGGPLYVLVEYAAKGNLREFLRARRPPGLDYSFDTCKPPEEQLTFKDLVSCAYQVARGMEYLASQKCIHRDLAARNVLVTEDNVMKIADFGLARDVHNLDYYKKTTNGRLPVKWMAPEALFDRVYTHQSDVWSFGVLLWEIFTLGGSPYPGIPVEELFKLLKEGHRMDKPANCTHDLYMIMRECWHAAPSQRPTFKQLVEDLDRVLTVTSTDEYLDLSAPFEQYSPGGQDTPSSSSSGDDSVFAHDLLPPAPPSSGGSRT

[11] = biological target: Receptor-type tyrosine-protein kinase FLT3 (Homo sapiens) (UniProt P36888); assay: Inhibition of human FLT3 assessed as residual activity at 10 uM relative to control
[12] = biological target: Vascular endothelial growth factor receptor 3 (Homo sapiens) (UniProt P35916); assay: Inhibition of N-terminal GST-tagged human FLT4 (800 to end residues) expressed in baculovirus infected Sf21 cells assessed as residual activity at 10 uM relative to control
[13] = biological target: Macrophage colony-stimulating factor 1 receptor (Homo sapiens) (UniProt P07333); assay: Inhibition of recombinant N-terminal His6-tagged human FMS (538 to end residues) expressed in baculovirus infected Sf21 insect cells assessed as residual activity at 10 uM relative to control
[14] = biological target: Inhibitor of nuclear factor kappa-B kinase subunit alpha (Homo sapiens) (UniProt O15111); assay: Inhibition of human IKKalpha at 10 uM relative to control
Inhibitor of nuclear factor kappa-B kinase subunit alpha (Homo sapiens), sequence (O15111 whole entry): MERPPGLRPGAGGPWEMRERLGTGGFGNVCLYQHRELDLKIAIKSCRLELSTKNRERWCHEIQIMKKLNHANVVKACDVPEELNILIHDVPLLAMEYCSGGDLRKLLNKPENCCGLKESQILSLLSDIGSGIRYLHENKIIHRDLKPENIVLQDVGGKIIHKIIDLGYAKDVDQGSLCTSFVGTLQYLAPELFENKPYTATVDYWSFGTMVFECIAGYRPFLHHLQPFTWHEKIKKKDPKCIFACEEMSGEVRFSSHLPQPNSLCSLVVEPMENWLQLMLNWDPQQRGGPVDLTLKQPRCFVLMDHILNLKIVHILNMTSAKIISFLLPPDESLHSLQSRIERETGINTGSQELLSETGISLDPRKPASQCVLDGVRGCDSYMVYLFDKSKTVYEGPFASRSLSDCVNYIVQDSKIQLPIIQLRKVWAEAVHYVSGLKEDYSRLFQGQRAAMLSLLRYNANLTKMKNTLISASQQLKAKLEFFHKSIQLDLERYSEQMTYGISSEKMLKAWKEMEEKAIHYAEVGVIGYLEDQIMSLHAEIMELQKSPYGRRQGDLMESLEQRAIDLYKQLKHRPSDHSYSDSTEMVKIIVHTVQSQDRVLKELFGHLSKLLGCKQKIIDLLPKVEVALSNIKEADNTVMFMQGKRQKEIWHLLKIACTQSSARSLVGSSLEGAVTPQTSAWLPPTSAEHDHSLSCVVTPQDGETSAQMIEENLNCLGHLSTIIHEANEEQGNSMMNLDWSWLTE

[15] = biological target: Tyrosine-protein kinase JAK2 (Homo sapiens) (UniProt O60674); assay: Inhibition of recombinant C-terminal His6-tagged human JAK2 (808 to end residues) expressed in baculovirus infected Sf21 insect cells at 10 uM relative to control
[16] = biological target: Mitogen-activated protein kinase 1 (Homo sapiens) (UniProt P28482); assay: Inhibition of recombinant full length N-terminal GST-tagged human MAPK1 expressed in Escherichia coli at 10 uM relative to control
Mitogen-activated protein kinase 1 (Homo sapiens), sequence (P28482 whole entry): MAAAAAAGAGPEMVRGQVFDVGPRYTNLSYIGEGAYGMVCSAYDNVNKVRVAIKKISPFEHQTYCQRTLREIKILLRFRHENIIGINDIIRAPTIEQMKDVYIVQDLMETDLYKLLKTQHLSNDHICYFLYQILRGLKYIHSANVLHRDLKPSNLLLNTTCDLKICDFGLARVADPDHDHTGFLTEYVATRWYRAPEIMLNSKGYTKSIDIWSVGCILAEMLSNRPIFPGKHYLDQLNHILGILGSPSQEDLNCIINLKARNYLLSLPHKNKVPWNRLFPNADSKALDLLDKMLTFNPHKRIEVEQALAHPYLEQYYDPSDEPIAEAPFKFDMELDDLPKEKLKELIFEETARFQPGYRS

[17] = biological target: Mitogen-activated protein kinase 1 (Homo sapiens) (UniProt P28482); assay: Inhibition of recombinant full length N-terminal GST-tagged human MAPK2 expressed in Escherichia coli at 10 uM relative to control
[18] = biological target: Platelet-derived growth factor receptor beta (Homo sapiens) (UniProt P09619); assay: Inhibition of recombinant N-terminal His6-tagged human PDGFRbeta (557 to end residues) expressed in baculovirus infected Sf21 insect cells at 10 uM relative to control
[19] = biological target: Ribosomal protein S6 kinase alpha-1 (Homo sapiens) (UniProt Q15418); assay: Inhibition of recombinant full length N-terminal His6-tagged human RSK1 expressed in Sf21 insect cells at 10 uM relative to control
Ribosomal protein S6 kinase alpha-1 (Homo sapiens), sequence (Q15418 whole entry): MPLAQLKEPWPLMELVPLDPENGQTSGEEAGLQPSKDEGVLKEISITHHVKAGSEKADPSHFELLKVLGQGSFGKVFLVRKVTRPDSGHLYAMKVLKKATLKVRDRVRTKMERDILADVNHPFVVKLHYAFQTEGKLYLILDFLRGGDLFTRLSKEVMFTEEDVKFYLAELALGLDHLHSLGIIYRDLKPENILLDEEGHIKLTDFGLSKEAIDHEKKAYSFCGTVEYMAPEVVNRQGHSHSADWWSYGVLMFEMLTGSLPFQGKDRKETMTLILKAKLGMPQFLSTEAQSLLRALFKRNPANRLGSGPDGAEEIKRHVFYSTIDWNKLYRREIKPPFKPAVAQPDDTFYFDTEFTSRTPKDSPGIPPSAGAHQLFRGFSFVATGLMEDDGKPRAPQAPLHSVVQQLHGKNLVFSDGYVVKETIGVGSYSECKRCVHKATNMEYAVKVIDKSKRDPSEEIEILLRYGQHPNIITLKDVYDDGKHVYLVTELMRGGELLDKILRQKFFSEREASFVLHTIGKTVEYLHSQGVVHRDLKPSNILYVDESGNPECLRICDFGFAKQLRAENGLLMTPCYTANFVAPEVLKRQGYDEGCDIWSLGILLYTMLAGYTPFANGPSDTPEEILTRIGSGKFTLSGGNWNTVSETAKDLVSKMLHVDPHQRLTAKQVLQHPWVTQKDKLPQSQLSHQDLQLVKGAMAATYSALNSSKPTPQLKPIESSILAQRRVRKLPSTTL

[20] = biological target: PI3-kinase p110-alpha/p85-alpha (Homo sapiens) (UniProt P27986+P42336); assay: Inhibition of p110 alpha/p85 alpha (unknown origin) at 10 uM relative to control; assay type: protein-complex assay
[21] = biological target: High affinity nerve growth factor receptor (Homo sapiens, UniProt P04629); assay: Inhibition of recombinant N-terminal His6-tagged human TrkA (440 to end residues) expressed in baculovirus infected Sf21 insect cells
[22] = tested on: Panel leukemia (Carcinoma cell lines); assay: cells; assay type: functional; settings: Homo sapiens, time 48 hrs
Description: Growth inhibition of human Panel leukemia (Carcinoma cell lines) incubated for 48 hrs by sulforhodamine B assay

[23] = tested on: Panel renal (Carcinoma cell lines); assay: cells; assay type: functional; settings: Homo sapiens, time 48 hrs
Description: Growth inhibition of human Panel renal (Carcinoma cell lines) incubated for 48 hrs by sulforhodamine B assay

[24] = tested on: Panel NCI-60 (60 carcinoma cell lines); assay: cells; assay type: functional; settings: Homo sapiens, time 48 hrs
Description: Growth inhibition of human Panel NCI-60 (60 carcinoma cell lines) incubated for 48 hrs by sulforhodamine B assay

## CN1CCN(CCCOc2cccc3nc(Nc4ccc(Cl)c(C(F)(F)F)c4)ccc23)CC1
K562
  GI50: 1620 nM
NCI-H23
  GI50: 1780 nM
NCI-H522
  GI50: 1830 nM
HCT-15
  GI50: 1220 nM
HT-29
  GI50: 1120 nM
KM12
  GI50: 1740 nM
SF-295
  GI50: 1800 nM
SNB-75
  GI50: 1520 nM
LOX IMVI
  GI50: 1560 nM
IGROV-1
  GI50: 1850 nM
OVCAR-3
  GI50: 1810 nM
OVCAR-4
  GI50: 2730 nM
A498
  GI50: 1680 nM
RXF 393
  GI50: 1630 nM
TK-10
  GI50: 1800 nM
Hs-578T
  GI50: 2000 nM
MDA-MB-468
  GI50: 1600 nM
[1]
  inhibition at 10 µM: 37.1%
[2]
  inhibition at 0.1 µM: 6.07%
[3]
  Activity: < 60%
[4]
  Activity: < 60%
[5]
  Activity: < 60%
[6]
  Activity: < 60%
[7]
  inhibition: < 60%
[8]
  Activity: < 60%
[9]
  Activity: < 60%
[10]
  Activity: < 60%
[11]
  Activity: 66%
[12]
  Activity: < 60%
[13]
  Activity: < 60%
[14]
  inhibition: < 60%
[15]
  inhibition: < 60%
[16]
  inhibition: < 60%
[17]
  inhibition: < 60%
[18]
  inhibition: < 60%
[19]
  inhibition: < 60%
[20]
  inhibition: < 60%
[21]
  IC50: 2520 nM
[22]
  GI50: 1380 nM
  LC50 (50% lethal concentration): 7780 nM
  TGI: 3480 nM
[23]
  GI50: 1620 nM
  LC50 (lethal concentration 50%): 6460 nM
  TGI: 3230 nM
[24]
  GI50: 1620 nM
  TGI: 3470 nM
[24]; read-out: LC50 (the source's name)
  CC50: 8130 nM
